Earlier results in patent publication US20150141462A1, “PHARMACEUTICAL COMPOSITIONS AND METHODS FOR TREATING DRUG ADDICTION AND PREVENTING A DRUG RELAPSE” (priority 2012, published 2015).

How the values were obtained:
[1] = tested on: animal models of addiction; conditions: mGluR5 antagonists
[2] = not given; remark: listed apart in the source

SMILES	self-administration of drugs of abuse [1]	reinstatement (following methamphetamine self-administration)	extinction following methamphetamine self-administration (in vivo)	cocaine-seeking behavior ([2]; following intravenous self-administration)	reacquisition of cocaine self-administration ([2]; in vivo)	extinction of cocaine-induced conditioned place preference (rats)
Cc1cccc(C#Cc2ccccc2)n1.Cl [MPEP, 2-methyl-6-(phenylethynyl)pyridine hydrochloride]	reduce self-administration of virtually all drugs of abuse	–	–	–	–	–
N#Cc1cccc(C(=O)Nc2cc(-c3ccccc3)nn2-c2ccccc2)c1 [CDPPB, 3-cyano-N-(1,3-diphenyl-1H-pyrazol-5-yl)benzamide]	–	reduced reinstatement slightly	improved extinction	reduces cocaine-seeking behavior	deters the reacquisition	enhances extinction
Cc1nc(C#Cc2cccnc2)cs1 [MTEP, 3-((2-methyl-4-thiazolyl)ethynyl)pyridine]	reduce self-administration of virtually all drugs of abuse	–	–	–	–	–
